Activity calls are given as the source filed them. The rule behind the calls is not given here.

The first assay is described as follows: Metal coordinating activity assessed as compound-copper coordination at 12.5 to 37.5 uM incubated for 0.5 to 1 hr in presence of 2.5 mM CuCl2 by UV-Visible spectrophotometric analysis. It is filed as functional.
For `COc1cc(C(C)C)c(C(=O)CSc2nnc(-c3ccccn3)o2)cc1C`, the result was inactive.

A further assay is described as follows: Antioxidant activity assessed as reduction of Cu2+ in bis-neocuproine-Cu2+ complex to bis-neocuproine-Cu+ complex measured as trolox equivalent antioxidant capacity incubated for 30 mins by CUPRAC assay. In kind it is functional.
As to `COc1cc(C(C)C)c(C(=O)CSc2ccncc2)cc1C`, the Ratio came to 0.47.
Still for that read-out and setting: for `COc1cc(C(C)C)c(C(=O)CSc2nc3ccccc3[nH]2)cc1C` the value was 1.21; for `COc1cc(C(C)C)c(C(=O)CSc2ccccn2)cc1C`, 0.59; for `COc1cc(C(C)C)c(C(=O)CSc2nc3ccccc3o2)cc1C`, 1.47.
Regarding `COc1cc(C(C)C)c(C(=O)CSc2nnc(-c3ccccn3)o2)cc1C`, the Ratio was 1.59.
Turning to `COc1cc(C(C)C)c(C(=O)CSc2nnc(C)s2)cc1C`, the Ratio came to 1.73.
Still for that read-out and setting: for `COc1cc(C(C)C)c(C(=O)CSc2nnc(-c3cccnc3)o2)cc1C` the value was 0.68; for `COc1cc(C(C)C)c(C(=O)CSc2nnc(-c3ccccc3)[nH]2)cc1C`, 1.02.
On to `COc1cc(C(C)C)c(C(=O)CS(=O)(=O)c2ccccc2)cc1C`, for which the outcome was inactive.
For `COc1cc(C(C)C)c(C(=O)CSc2nnc(N)s2)cc1C`, the Ratio turned out to be 1.4.
Take `COc1cc(C(C)C)c(C(=O)CSc2nnc(-c3ccncc3)o2)cc1C`: the Ratio was 0.95.
Still for that read-out and setting: for `COc1cc(C(C)C)c(C(=O)CSc2nc3ccccc3s2)cc1C` the value was 1.26.
The same measure, in the same setting: to `COc1cc(C(C)C)c(C(=O)CSc2ccccc2)cc1C` belongs 0.8; to `COc1cc(C(C)C)c(C(=O)CSc2nnc(N)[nH]2)cc1C`, 1.62.
Regarding `COc1cc(C(C)C)c(C(=O)CSc2ncccn2)cc1C`, the Ratio came out at 0.39.
As to `Cc1ccc(C(C)C)cc1O`, the Ratio is 0.87.
Consider `O=C1O[C@H]([C@@H](O)CO)C(O)=C1O`, for which the Ratio was found to be 0.85.
Regarding `COc1cc(C(C)C)c(C(=O)CSc2nnc(-c3ccccc3)o2)cc1C`, the Ratio turned out to be 1.34.
Take `COc1cc(C(C)C)c(C(=O)CSc2ncnc3[nH]cnc23)cc1C`: the Ratio came to 1.32.

Source of the values: ChEMBL document CHEMBL4351033, “Heterocyclic β-keto sulfide derivatives of carvacrol: Synthesis and copper (II) ion reducing capacity” (Bioorg Med Chem Lett, 2019).
